Assay results reported in PubChem BioAssay AID248 (DTP/NCI, 2004).
Several values for one entry are separate records, joined by “and”; a condition that tells them apart may be missing. Identical values can stand only once. Toxic doses and inconclusive results are not listed.

System: L1210 leukemia ip in BDF1 mice, survival T/C
Test: NCI In Vivo Anticancer Drug Screen. Data for tumor model L1210 Leukemia (intraperitoneal) in B6D2F1 (BDF1) mice
Conditions: endpoint: mean survival time, higher = longer survival
Method in brief: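 Transplantable tumor model; survival measured in treated vs vehicle control mice. Value = treated/control.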

N=[N+]=CC(=O)CCC(NC(=O)C(CCC(=O)C=[N+]=N)NC(=O)CCC(N)C(=O)O)C(=O)O (stereo unspecified)
T/C (dose: 0.01 mg/kg/injection, schedule: Q01DX009 (ip), vehicle: water): 114 % of control | T/C (dose: 0.02 mg/kg/injection, schedule: Q01DX009 (ip), vehicle: other): 110 % of control | T/C (dose: 0.02 mg/kg/injection, schedule: Q01DX015 (ip), vehicle: water): 93 % of control | T/C (dose: 0.05 mg/kg/injection, schedule: Q01DX009 (ip), vehicle: other): 102 % of control and 115 % of control | T/C (dose: 0.05 mg/kg/injection, schedule: Q01DX015 (ip), vehicle: water): 102 % of control | T/C (dose: 0.05 mg/kg/injection, schedule: Q01DX017 (ip), vehicle: saline): 98 % of control and 106 % of control | T/C (dose: 0.05 mg/kg/injection, schedule: Q02DX009 (ip), vehicle: saline): 98 % of control | T/C (dose: 0.05 mg/kg/injection, schedule: Q03HX024 (ip), vehicle: water): 93 % of control | T/C (dose: 0.07 mg/kg/injection, schedule: Q01DX009 (ip), vehicle: water): 156 % of control | T/C (dose: 0.1 mg/kg/injection, schedule: Q01DX009 (ip), vehicle: other): 117 % of control | T/C (dose: 0.1 mg/kg/injection, schedule: Q01DX015 (ip), vehicle: water): 108 % of control | T/C (dose: 0.1 mg/kg/injection, schedule: Q01DX017 (ip), vehicle: saline): 123 % of control | T/C (dose: 0.1 mg/kg/injection, schedule: Q02DX009 (ip), vehicle: saline): 116 % of control | T/C (dose: 0.1 mg/kg/injection, schedule: Q04DX005 (ip), vehicle: saline): 102 % of control | T/C (dose: 0.2 mg/kg/injection, schedule: Q01DX009 (ip), vehicle: other): 107 % of control | T/C (dose: 0.2 mg/kg/injection, schedule: Q01DX017 (ip), vehicle: saline): 158 % of control | T/C (dose: 0.2 mg/kg/injection, schedule: Q02DX009 (ip), vehicle: saline): 123 % of control | T/C (dose: 0.2 mg/kg/injection, schedule: Q04DX005 (ip), vehicle: saline): 104 % of control | T/C (dose: 0.2 mg/kg/injection, schedule: Q08DX003 (ip), vehicle: saline): 112 % of control | T/C (dose: 0.4 mg/kg/injection, schedule: Q01DX015 (ip), vehicle: other): 117 % of control | T/C (dose: 0.4 mg/kg/injection, schedule: Q01DX015 (ip), vehicle: water): 153 % of control | T/C (dose: 0.4 mg/kg/injection, schedule: Q01DX017 (ip), vehicle: saline): 110 % of control and 123 % of control | T/C (dose: 0.4 mg/kg/injection, schedule: Q04DX005 (ip), vehicle: saline): 121 % of control | T/C (dose: 0.4 mg/kg/injection, schedule: Q08DX003 (ip), vehicle: saline): 107 % of control | T/C (dose: 0.6 mg/kg/injection, schedule: Q01DX015 (ip), vehicle: water): 183 % of control | T/C (dose: 0.8 mg/kg/injection, schedule: Q04DX005 (ip), vehicle: saline): 118 % of control | T/C (dose: 0.8 mg/kg/injection, schedule: Q08DX003 (ip), vehicle: saline): 109 % of control | T/C (dose: 1.0 mg/kg/injection, schedule: Q01DX009 (oral), vehicle: water): 96 % of control | T/C (dose: 1.0 mg/kg/injection, schedule: Q02DX005 (ip), vehicle: other): 160 % of control | T/C (dose: 1.0 mg/kg/injection, schedule: Q02DX005 (oral), vehicle: other): 163 % of control | T/C (dose: 1.25 mg/kg/injection, schedule: Q02DX008 (ip), vehicle: other): 189 % of control | T/C (dose: 1.25 mg/kg/injection, schedule: Q02DX008 (ip), vehicle: water): 166 % of control | T/C (dose: 1.25 mg/kg/injection, schedule: Q02DX008 (oral), vehicle: water): 156 % of control | T/C (dose: 1.6 mg/kg/injection, schedule: Q08DX003 (ip), vehicle: saline): 110 % of control | T/C (dose: 2.0 mg/kg/injection, schedule: Q02DX005 (oral), vehicle: other): 186 % of control | T/C (dose: 2.5 mg/kg/injection, schedule: Q02DX008 (oral), vehicle: water): 154 % of control | T/C (dose: 4.0 mg/kg/injection, schedule: Q02DX005 (ip), vehicle: other): 176 % of control | T/C (dose: 4.0 mg/kg/injection, schedule: Q02DX005 (oral), vehicle: other): 195 % of control | T/C (dose: 5.0 mg/kg/injection, schedule: Q02DX008 (ip), vehicle: other): 206 % of control | T/C (dose: 5.0 mg/kg/injection, schedule: Q04DX003 (ip), vehicle: other): 155 % of control | T/C (dose: 5.0 mg/kg/injection, schedule: Q04DX003 (ip), vehicle: saline): 170 % of control | T/C (dose: 6.0 mg/kg/injection, schedule: Q02DX005 (ip), vehicle: other): 197 % of control | T/C (dose: 6.0 mg/kg/injection, schedule: Q02DX005 (oral), vehicle: other): 204 % of control | T/C (dose: 6.2 mg/kg/injection, schedule: Q03HX024 (ip), vehicle: water): 193 % of control | T/C (dose: 8.0 mg/kg/injection, schedule: Q02DX005 (ip), vehicle: other): 183 % of control | T/C (dose: 8.0 mg/kg/injection, schedule: Q02DX005 (oral), vehicle: other): 200 % of control | T/C (dose: 10.0 mg/kg/injection, schedule: Q02DX008 (ip), vehicle: other): 117 % of control | T/C (dose: 10.0 mg/kg/injection, schedule: Q02DX008 (oral), vehicle: other): 166 % of control | T/C (dose: 10.0 mg/kg/injection, schedule: Q04DX003 (ip), vehicle: other): 155 % of control and 173 % of control | T/C (dose: 10.0 mg/kg/injection, schedule: Q04DX003 (ip), vehicle: saline): 192 % of control | T/C (dose: 10.0 mg/kg/injection, schedule: Q04DX003 (ip), vehicle: water): 167 % of control | T/C (dose: 12.5 mg/kg/injection, schedule: Q01DX001 (ip), vehicle: clinical formulation): 112 % of control | T/C (dose: 12.5 mg/kg/injection, schedule: Q01DX001 (ip), vehicle: saline): 119 % of control and 122 % of control | T/C (dose: 12.5 mg/kg/injection, schedule: Q03HX024 (ip), vehicle: water): 97 % of control | T/C (dose: 15.0 mg/kg/injection, schedule: Q02DX008 (oral), vehicle: other): 104 % of control | T/C (dose: 15.0 mg/kg/injection, schedule: Q## X003 (ip), vehicle: water): 185 % of control | T/C (dose: 20.0 mg/kg/injection, schedule: Q02DX008 (oral), vehicle: other): 116 % of control | T/C (dose: 20.0 mg/kg/injection, schedule: Q04DX003 (ip), vehicle: other): 166 % of control | T/C (dose: 20.0 mg/kg/injection, schedule: Q04DX003 (ip), vehicle: saline): 188 % of control | T/C (dose: 20.0 mg/kg/injection, schedule: Q04DX003 (ip), vehicle: water): 167 % of control and 171 % of control | T/C (dose: 20.0 mg/kg/injection, schedule: Q## X006 (ip), vehicle: water): 156 % of control | T/C (dose: 25.0 mg/kg/injection, schedule: Q01DX001 (ip), vehicle: clinical formulation): 123 % of control | T/C (dose: 25.0 mg/kg/injection, schedule: Q07DX002 (ip), vehicle: water): 156 % of control and 167 % of control | T/C (dose: 30.0 mg/kg/injection, schedule: Q04DX003 (ip), vehicle: other): 202 % of control | T/C (dose: 30.0 mg/kg/injection, schedule: Q## X003 (ip), vehicle: water): 209 % of control | T/C (dose: 40.0 mg/kg/injection, schedule: Q04DX003 (ip), vehicle: saline): 170 % of control | T/C (dose: 40.0 mg/kg/injection, schedule: Q04DX003 (ip), vehicle: water): 200 % of control and 206 % of control | T/C (dose: 40.0 mg/kg/injection, schedule: Q## X003 (ip), vehicle: water): 194 % of control | T/C (dose: 40.0 mg/kg/injection, schedule: Q## X006 (ip), vehicle: water): 188 % of control | T/C (dose: 50.0 mg/kg/injection, schedule: Q01DX001 (ip), vehicle: saline): 150 % of control | T/C (dose: 50.0 mg/kg/injection, schedule: Q01DX001 (ip), vehicle: water): 111 % of control | T/C (dose: 50.0 mg/kg/injection, schedule: Q07DX002 (ip), vehicle: other): 158 % of control | T/C (dose: 50.0 mg/kg/injection, schedule: Q## X003 (ip), vehicle: water): 178 % of control | T/C (dose: 60.0 mg/kg/injection, schedule: Q04DX003 (ip), vehicle: water): 195 % of control | T/C (dose: 60.0 mg/kg/injection, schedule: Q## X003 (ip), vehicle: water): 185 % of control | T/C (dose: 60.0 mg/kg/injection, schedule: Q## X006 (ip), vehicle: water): 115 % of control | T/C (dose: 75.0 mg/kg/injection, schedule: Q07DX002 (ip), vehicle: water): 192 % of control | T/C (dose: 80.0 mg/kg/injection, schedule: Q04DX003 (ip), vehicle: saline): 100 % of control | T/C (dose: 80.0 mg/kg/injection, schedule: Q04DX003 (ip), vehicle: water): 159 % of control | T/C (dose: 80.0 mg/kg/injection, schedule: Q## X006 (ip), vehicle: water): 115 % of control | T/C (dose: 100.0 mg/kg/injection, schedule: Q01DX001 (ip), vehicle: clinical formulation): 153 % of control | T/C (dose: 100.0 mg/kg/injection, schedule: Q07DX002 (ip), vehicle: other): 171 % of control | T/C (dose: 100.0 mg/kg/injection, schedule: Q07DX002 (ip), vehicle: water): 194 % of control | T/C (dose: 150.0 mg/kg/injection, schedule: Q07DX002 (ip), vehicle: water): 194 % of control | T/C (dose: 200.0 mg/kg/injection, schedule: Q01DX001 (ip), vehicle: other): 158 % of control | T/C (dose: 200.0 mg/kg/injection, schedule: Q01DX001 (ip), vehicle: saline): 96 % of control | T/C (dose: 200.0 mg/kg/injection, schedule: Q01DX001 (ip), vehicle: water): 109 % of control | T/C (dose: 200.0 mg/kg/injection, schedule: Q01DX001 (oral), vehicle: other): 155 % of control | T/C (dose: 250.0 mg/kg/injection, schedule: Q01DX001 (ip), vehicle: water): 117 % of control | T/C (dose: 300.0 mg/kg/injection, schedule: Q01DX001 (ip), vehicle: other): 101 % of control | T/C (dose: 300.0 mg/kg/injection, schedule: Q01DX001 (ip), vehicle: water): 96 % of control and 106 % of control
